The values below come from ChEMBL document CHEMBL5653631, “A Potent and Selective ULK1 Inhibitor Suppresses Autophagy and Sensitizes Cancer Cells to Nutrient Stress” (iScience, 2018).

Each structure is given as a SMILES string.

Test [1] has as its target MAP/microtubule affinity-regulating kinase 3 (Homo sapiens) (UniProt P27448). Briefly: Inhibition of human recombinant MARK3 at 15 nM in presence of ATP by radiometric assay relative to control.
The target in test [2] is Cyclin-dependent kinase 6 (Homo sapiens) (UniProt Q00534). Briefly: Inhibition of human recombinant CDK6 at 15 nM related to control ULK1.
Cyclin-dependent kinase 6 (Homo sapiens), sequence (Q00534 whole entry, the tested form may be a part): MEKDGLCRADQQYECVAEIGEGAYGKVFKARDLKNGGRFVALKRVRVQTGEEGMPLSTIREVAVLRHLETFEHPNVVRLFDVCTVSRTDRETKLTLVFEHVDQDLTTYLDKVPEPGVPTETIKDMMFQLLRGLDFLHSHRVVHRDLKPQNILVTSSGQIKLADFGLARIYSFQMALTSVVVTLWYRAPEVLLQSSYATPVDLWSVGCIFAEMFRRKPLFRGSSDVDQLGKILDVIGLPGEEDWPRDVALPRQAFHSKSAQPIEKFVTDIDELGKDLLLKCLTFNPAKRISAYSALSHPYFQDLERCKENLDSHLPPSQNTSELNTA
For test [3], the target named is T1, Discoidin domain-containing receptor 2 (Homo sapiens) (UniProt Q16832).
T1 sequence (whole entry): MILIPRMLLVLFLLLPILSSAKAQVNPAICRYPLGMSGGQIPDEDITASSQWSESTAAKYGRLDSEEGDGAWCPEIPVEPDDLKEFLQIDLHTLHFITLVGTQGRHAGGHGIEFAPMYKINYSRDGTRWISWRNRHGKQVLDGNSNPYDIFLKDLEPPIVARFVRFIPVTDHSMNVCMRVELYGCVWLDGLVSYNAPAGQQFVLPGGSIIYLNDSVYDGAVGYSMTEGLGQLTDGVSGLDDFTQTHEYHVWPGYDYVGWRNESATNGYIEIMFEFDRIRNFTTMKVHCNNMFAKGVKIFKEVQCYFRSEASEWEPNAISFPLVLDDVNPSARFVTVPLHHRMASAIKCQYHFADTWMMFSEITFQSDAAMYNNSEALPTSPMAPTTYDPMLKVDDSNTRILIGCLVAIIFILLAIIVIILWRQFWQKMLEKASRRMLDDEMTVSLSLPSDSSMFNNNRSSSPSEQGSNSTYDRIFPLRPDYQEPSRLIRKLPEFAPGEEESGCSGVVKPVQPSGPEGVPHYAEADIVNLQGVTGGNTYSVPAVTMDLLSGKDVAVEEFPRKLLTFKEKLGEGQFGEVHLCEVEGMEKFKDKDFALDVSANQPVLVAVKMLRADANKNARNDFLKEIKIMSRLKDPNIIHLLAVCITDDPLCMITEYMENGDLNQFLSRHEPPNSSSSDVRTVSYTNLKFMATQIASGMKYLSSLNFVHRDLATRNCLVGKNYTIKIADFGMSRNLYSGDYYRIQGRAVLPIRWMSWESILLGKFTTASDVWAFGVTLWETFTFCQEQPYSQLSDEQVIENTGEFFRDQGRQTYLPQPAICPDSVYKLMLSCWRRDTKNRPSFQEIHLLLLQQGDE
Nature of the test: Inhibition of human recombinant DDR2 at 15 nM related to control ULK1.

The target in test [4] is Serine/threonine-protein kinase pim-3 (Homo sapiens) (UniProt Q86V86). Briefly: Inhibition of human recombinant PIM3 at 15 nM related to control ULK1.
The target of test [5] is Calcium/calmodulin-dependent protein kinase type 1 (Homo sapiens) (UniProt Q14012). Nature of the test: Inhibition of human recombinant CaMK1a at 40 nM in presence of ATP by radiometric assay relative to control.
Calcium/calmodulin-dependent protein kinase type 1 (Homo sapiens), sequence (Q14012 whole entry, looked up): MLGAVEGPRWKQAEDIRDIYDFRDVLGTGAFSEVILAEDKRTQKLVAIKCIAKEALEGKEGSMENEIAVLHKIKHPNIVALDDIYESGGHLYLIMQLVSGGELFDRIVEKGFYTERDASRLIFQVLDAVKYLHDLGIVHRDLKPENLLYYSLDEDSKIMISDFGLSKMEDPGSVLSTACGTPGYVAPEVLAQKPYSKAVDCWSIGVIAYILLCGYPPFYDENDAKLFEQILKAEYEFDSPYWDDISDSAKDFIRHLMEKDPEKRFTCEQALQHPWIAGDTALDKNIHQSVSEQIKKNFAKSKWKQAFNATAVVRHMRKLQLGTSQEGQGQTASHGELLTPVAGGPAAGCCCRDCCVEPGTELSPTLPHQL
Test [6] addresses SRSF protein kinase 3 (Homo sapiens) (UniProt Q9UPE1). Nature of the test: Inhibition of human recombinant MSSK1 at 40 nM in presence of ATP by radiometric assay relative to control.
Test [7] addresses T2, Serine/threonine-protein kinase Sgk2 (Homo sapiens) (UniProt Q9HBY8).
T2 sequence (whole entry): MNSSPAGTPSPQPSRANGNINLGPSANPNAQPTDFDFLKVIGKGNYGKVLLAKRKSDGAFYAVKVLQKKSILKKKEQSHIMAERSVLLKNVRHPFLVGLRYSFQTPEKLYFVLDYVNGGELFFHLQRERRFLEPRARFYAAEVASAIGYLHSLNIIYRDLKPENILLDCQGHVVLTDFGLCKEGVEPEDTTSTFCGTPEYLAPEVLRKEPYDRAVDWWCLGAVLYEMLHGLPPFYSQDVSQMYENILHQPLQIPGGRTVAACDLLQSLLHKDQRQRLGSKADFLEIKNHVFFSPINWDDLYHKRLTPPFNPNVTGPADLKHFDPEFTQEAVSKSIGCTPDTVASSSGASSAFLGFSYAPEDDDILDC
Nature of the test: Inhibition of human recombinant SGK2 at 40 nM in presence of ATP by radiometric assay relative to control.

Test [8] has as its target Myosin light chain kinase, smooth muscle (Homo sapiens) (UniProt Q15746). Briefly: Inhibition of human recombinant smMLCK at 40 nM in presence of ATP by radiometric assay relative to control.
Test [9] concerns the target T3, Inhibitor of nuclear factor kappa-B kinase subunit epsilon (Homo sapiens) (UniProt Q14164).
T3 sequence (whole entry): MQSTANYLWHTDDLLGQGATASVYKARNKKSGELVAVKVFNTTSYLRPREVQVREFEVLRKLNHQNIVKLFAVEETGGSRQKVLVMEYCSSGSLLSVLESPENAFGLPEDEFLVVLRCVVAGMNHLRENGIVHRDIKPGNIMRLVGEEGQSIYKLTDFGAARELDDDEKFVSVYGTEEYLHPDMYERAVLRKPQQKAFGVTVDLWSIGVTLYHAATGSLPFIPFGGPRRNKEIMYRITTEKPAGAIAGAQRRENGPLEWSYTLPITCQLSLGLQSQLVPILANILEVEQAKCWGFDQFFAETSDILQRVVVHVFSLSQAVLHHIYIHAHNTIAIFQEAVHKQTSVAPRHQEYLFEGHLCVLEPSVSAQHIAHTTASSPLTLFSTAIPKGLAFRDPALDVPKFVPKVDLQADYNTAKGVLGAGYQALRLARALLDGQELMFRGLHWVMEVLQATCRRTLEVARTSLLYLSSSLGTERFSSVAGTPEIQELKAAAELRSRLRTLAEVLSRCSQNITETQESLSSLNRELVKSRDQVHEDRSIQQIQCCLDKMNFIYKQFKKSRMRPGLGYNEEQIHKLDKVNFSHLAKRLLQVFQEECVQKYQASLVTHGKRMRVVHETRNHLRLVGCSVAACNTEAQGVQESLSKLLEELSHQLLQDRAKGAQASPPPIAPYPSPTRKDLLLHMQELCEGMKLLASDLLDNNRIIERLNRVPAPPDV
Briefly: Inhibition of human recombinant IKKe at 500 nM in presence of ATP by radiometric assay relative to control.

Test [10] has as its target Protein-tyrosine kinase 2-beta (Homo sapiens) (UniProt Q14289). Nature of the test: Inhibition of human recombinant PYK2 at 500 nM in presence of ATP by radiometric assay relative to control.
The target of test [11] is Cyclin-dependent kinase 18 (Homo sapiens) (UniProt Q07002). Nature of the test: Inhibition of human recombinant PCTAIRE3 at 500 nM related to control ULK1.
Cyclin-dependent kinase 18 (Homo sapiens), sequence (Q07002 whole entry, canonical isoform): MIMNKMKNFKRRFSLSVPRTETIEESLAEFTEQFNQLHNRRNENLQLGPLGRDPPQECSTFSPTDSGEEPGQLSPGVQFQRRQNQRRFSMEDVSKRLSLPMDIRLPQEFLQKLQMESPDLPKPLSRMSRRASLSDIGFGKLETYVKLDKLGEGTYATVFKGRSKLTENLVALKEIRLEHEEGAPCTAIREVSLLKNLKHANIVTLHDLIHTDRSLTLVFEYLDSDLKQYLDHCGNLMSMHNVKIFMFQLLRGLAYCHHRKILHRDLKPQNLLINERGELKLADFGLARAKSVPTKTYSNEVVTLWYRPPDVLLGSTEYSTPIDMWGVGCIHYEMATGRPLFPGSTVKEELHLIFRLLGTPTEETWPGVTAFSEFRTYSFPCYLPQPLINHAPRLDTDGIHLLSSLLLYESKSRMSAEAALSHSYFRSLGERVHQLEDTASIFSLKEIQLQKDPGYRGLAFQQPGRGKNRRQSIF
Test [12] addresses Phosphorylase b kinase gamma catalytic chain, skeletal muscle/heart isoform (Homo sapiens) (UniProt Q16816). Nature of the test: Inhibition of human recombinant PHKg1 at 500 nM related to control ULK1.

Protein-tyrosine kinase 2-beta (Homo sapiens), sequence (Q14289 whole entry, looked up): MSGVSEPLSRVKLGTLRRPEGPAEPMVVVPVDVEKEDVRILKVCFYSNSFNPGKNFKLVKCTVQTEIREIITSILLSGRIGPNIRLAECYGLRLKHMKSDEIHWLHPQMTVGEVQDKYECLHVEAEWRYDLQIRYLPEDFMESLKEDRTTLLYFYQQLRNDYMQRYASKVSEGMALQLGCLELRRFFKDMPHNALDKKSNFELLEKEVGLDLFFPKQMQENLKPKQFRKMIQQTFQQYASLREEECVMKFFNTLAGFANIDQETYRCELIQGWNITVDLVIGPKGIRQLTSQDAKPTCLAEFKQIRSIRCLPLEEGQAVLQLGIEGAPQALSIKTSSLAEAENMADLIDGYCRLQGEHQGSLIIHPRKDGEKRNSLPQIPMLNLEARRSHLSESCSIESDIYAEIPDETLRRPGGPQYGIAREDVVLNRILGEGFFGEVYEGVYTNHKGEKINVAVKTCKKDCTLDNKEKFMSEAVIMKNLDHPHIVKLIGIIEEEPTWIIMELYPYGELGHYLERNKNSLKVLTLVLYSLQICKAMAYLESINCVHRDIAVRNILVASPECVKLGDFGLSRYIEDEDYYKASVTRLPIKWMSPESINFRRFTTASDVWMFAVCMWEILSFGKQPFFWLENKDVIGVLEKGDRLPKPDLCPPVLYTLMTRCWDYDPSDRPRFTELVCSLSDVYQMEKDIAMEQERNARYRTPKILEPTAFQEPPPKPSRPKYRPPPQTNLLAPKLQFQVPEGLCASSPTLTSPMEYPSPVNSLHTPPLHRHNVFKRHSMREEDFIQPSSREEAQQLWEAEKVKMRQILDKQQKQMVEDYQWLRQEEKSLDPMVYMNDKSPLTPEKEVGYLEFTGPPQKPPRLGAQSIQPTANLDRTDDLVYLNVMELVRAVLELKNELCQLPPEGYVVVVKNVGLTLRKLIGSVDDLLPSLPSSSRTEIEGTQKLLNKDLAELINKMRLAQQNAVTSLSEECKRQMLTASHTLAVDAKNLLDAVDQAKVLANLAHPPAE
Myosin light chain kinase, smooth muscle (Homo sapiens), sequence (Q15746 whole entry): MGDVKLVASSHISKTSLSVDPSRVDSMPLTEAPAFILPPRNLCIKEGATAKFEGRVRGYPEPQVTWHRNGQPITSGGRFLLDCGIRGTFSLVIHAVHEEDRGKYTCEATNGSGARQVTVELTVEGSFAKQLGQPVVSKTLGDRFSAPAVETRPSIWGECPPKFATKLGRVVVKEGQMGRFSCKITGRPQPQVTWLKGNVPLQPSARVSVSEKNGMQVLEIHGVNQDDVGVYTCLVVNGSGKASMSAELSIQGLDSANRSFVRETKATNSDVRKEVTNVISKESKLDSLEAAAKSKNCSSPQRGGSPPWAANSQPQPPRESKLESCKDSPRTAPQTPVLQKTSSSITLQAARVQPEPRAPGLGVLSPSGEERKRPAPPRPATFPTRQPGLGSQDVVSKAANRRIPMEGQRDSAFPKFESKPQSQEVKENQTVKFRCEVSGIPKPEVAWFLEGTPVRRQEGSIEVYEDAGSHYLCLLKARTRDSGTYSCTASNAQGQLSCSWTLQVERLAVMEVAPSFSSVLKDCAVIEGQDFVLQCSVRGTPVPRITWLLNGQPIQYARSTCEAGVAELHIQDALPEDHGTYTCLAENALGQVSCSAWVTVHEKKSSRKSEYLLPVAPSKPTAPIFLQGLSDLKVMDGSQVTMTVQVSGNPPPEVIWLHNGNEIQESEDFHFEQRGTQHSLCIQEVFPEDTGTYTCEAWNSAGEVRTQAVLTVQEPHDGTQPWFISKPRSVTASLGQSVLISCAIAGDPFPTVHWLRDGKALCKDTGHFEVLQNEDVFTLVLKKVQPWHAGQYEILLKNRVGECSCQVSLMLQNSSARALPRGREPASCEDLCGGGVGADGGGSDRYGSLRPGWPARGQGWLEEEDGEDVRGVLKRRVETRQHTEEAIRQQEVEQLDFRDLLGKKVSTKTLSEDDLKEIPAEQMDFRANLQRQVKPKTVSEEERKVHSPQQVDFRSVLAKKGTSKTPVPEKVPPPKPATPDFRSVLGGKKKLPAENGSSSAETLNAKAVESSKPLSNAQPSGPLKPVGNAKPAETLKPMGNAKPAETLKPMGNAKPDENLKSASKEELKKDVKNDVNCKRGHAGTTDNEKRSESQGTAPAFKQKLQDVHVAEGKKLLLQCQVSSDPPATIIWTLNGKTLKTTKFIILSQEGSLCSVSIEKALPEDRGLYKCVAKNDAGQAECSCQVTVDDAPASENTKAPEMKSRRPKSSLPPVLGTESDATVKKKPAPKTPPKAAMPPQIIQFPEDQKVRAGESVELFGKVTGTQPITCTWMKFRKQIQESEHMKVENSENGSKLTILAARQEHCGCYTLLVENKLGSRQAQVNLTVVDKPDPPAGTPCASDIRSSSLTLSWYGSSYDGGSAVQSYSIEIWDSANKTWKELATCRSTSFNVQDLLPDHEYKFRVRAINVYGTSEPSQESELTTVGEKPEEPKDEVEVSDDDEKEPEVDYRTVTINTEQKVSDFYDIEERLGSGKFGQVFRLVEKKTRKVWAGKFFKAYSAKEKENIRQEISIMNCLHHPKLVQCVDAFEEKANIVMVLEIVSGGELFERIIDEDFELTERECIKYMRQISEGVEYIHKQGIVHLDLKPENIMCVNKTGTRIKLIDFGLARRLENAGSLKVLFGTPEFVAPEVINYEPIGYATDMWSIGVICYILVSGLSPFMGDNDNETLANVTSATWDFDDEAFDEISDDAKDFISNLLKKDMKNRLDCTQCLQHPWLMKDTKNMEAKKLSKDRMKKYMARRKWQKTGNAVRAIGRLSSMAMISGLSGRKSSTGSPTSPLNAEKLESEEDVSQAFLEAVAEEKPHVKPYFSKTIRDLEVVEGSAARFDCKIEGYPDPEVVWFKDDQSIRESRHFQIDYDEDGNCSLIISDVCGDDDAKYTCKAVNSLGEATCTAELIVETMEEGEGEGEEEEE
Phosphorylase b kinase gamma catalytic chain, skeletal muscle/heart isoform (Homo sapiens), sequence (Q16816 whole entry, looked up, canonical isoform): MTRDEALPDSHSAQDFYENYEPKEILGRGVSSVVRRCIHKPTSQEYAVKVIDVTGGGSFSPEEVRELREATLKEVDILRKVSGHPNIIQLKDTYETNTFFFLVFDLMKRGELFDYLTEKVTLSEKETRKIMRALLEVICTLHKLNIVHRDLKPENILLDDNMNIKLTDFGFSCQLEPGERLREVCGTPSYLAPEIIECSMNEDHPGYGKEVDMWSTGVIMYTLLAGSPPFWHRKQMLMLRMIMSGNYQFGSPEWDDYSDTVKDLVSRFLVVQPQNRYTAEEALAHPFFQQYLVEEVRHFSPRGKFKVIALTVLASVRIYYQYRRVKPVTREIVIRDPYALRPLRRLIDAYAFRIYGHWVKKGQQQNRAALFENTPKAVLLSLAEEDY
SRSF protein kinase 3 (Homo sapiens), sequence (Q9UPE1 whole entry): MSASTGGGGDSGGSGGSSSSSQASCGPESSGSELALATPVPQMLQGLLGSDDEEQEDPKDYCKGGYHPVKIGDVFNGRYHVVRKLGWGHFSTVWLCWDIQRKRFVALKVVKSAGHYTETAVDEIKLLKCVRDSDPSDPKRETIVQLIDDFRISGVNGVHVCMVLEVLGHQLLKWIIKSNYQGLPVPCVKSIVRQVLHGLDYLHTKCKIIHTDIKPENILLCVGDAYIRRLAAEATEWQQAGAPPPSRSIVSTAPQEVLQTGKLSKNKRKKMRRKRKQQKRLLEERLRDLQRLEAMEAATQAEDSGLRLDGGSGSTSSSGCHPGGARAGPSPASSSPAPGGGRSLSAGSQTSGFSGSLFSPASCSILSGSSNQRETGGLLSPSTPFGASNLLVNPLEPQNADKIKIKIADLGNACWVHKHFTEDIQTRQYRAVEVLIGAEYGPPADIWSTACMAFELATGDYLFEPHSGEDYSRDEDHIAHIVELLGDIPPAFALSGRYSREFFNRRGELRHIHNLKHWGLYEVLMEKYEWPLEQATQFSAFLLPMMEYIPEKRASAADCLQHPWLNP

One may read the inhibition as the percentage by which the read-out fell short of the control. Turning to `CC(C)[C@H](NC(=O)c1cc(-c2cnn3cc(-c4ccc(OCCN5CCCCC5)cc4)cnc23)cs1)C(F)(F)F`, in test [1], the inhibition is 63%. Besides, the fold change (FC) turned out to be 0.09 in [2], 0 in test [3] and 0.02 in [4].
For `O=C(N[C@@H](C1CC1)C(F)(F)F)c1cc(-c2cnn3cc(-c4ccc(F)cc4)cnc23)cs1`, the inhibition is 0% in test [5], 13% in [6], 12% in test [7] and 5% in [8].
Turning to `CNC(=O)c1ccccc1Oc1nc(Nc2cc(OC)c(OC)c(OC)c2)ncc1Br`, the inhibition in test [9] was found to be 0%; in test [10] it was 53%. Moreover, the fold change (FC) stood at 0.27 in test [11] and 0.31 in test [12].
